Measured values reported in article PMC8198181, “Evaluation of Substituted N-Phenylpiperazine Analogs as D3 vs. D2 Dopamine Receptor Subtype Selective Ligands” (Molecules, 2021).

Assays:
DBA/2J mice = assay: DOI-dependent head twitch response inhibition; assay type: in vivo, mouse; conditions: male DBA/2J mice, 10 mg/kg i.p., DOI 5 mg/kg, 30 min
Source text: (§1) First, we have previously published that D3 receptor selective compounds could attenuate a hallucinogen-dependent head twitch response (HTR) in male DBA/2J mice. […] Second, we previously reported that D3 vs. D2 dopamine receptor subtype selective ligands could attenuate L-dopa dependent abnormal involuntary movement (AIM) scores in unilaterally lesioned (hemiparkinsonian) male rats, which is a model for L-dopa-Induced Dyskinesia (LID).
Upon arrival DBA/2J mice (Jackson Labs) were allowed to acclimate for at least one week prior to testing. Mice were housed at ≤4 animals per cage with unlimited access to food and fresh water. The protocol for the HTR assessment has been previously reported. […]
However, a head twitch was defined as a rapid movement of the head, without the involvement of the front paws during grooming. […] At least two observers counted the number of head twitches by visual examination and the number of head twitches was recorded in 5-min cumulative intervals. […]
The effect of Group was assessed using two-way analysis of variance (ANOVA) with Time as the repeated measure. The data was further analyzed at each time point with a one-way ANOVA with Group as the factor followed by planned individual comparisons between different groups using a single degree-of-freedom F test involving the error term from the overall ANOVA when the Time and Group interaction was significant. […]

[1] = test system: unilateral 6-hydroxydopamine lesioned (hemiparkinsonian) rats; assay: L-dopa-dependent abnormal involuntary movement (AIM) inhibition in hemiparkinsonian rats; assay type: in vivo, rat; conditions: unilaterally lesioned male rats, 10 mg/kg, L-dopa and benserazide 8 mg/kg each
Method: as §1, with “(LID). […]” for “(LID).”
AIMs ratings were performed as previously described. The severity of the AIMs was quantified using lesioned rats that were observed individually in their home cages at 15 min intervals, starting 15 min after the injection of L-dopa for approximately 2 h. The AIMs were scored in four categories: (1) axial AIMs, including dystonic or choreiform torsion of the trunk and neck towards the side contralateral to the lesion; (2) limb AIMs, including jerky and/or dystonic movements of the forelimb contralateral to the lesion; (3) orolingual AIMs, including twitching of orofacial muscles with empty masticatory movements and protrusion of the tongue towards the side contralateral to the lesion and (4) locomotive AIMs, including increased locomotion with contralateral side bias. […]
The effect of Group was assessed using two-way analysis of variance (ANOVA) with time as the repeated measure. […]

D1 dopamine receptor = D1 dopamine receptor (Homo sapiens, UniProt P21728); assay: PDSP off-target binding; conditions: in words
Source text: (§2) Further evaluation of the off-target binding of compound 6a was provided by the Psychoactive Drug Screening Program (PDSP) for a range of receptors including serotonin receptor subtypes, α-adrenergic receptor subtypes, β-adrenergic receptor subtypes, histaminergic receptor subtypes, muscarinic receptor subtypes, opioid receptor subtypes and the two sigma receptor subtypes.

D2 dopamine receptor = D2 dopamine receptor (Homo sapiens, UniProt P14416); assay: PDSP off-target binding; conditions: in words
Source text: as §2

[2] = biological target: dopamine transporter (DAT) (Homo sapiens, UniProt Q01959); assay: PDSP off-target binding; conditions: read-out: binding affinity DAT (PDSP)
Source text: as §2

[3] = biological target: serotonin transporter (SERT) (Homo sapiens, UniProt P31645); assay: PDSP off-target binding; conditions: read-out: binding affinity SERT (PDSP)
Source text: as §2

sigma-1 receptor = sigma-1 receptor (Homo sapiens, UniProt Q99720); assay: PDSP off-target binding; conditions: read-out: binding affinity sigma-1 (PDSP)
Source text: as §2

α2a adrenergic receptor = α2a adrenergic receptor (Homo sapiens, UniProt P08913); assay: PDSP off-target binding; conditions: read-out: binding affinity α2a (PDSP)
Source text: as §2

α2b adrenergic receptor = α2b adrenergic receptor (Homo sapiens, UniProt P18089); assay: PDSP off-target binding; conditions: read-out: binding affinity α2b (PDSP)
Source text: as §2

α2c adrenergic receptor = α2c adrenergic receptor (Homo sapiens, UniProt P18825); assay: PDSP off-target binding; conditions: read-out: binding affinity α2c (PDSP)
Source text: as §2

Chain of α2c adrenergic receptor (P18825 whole entry): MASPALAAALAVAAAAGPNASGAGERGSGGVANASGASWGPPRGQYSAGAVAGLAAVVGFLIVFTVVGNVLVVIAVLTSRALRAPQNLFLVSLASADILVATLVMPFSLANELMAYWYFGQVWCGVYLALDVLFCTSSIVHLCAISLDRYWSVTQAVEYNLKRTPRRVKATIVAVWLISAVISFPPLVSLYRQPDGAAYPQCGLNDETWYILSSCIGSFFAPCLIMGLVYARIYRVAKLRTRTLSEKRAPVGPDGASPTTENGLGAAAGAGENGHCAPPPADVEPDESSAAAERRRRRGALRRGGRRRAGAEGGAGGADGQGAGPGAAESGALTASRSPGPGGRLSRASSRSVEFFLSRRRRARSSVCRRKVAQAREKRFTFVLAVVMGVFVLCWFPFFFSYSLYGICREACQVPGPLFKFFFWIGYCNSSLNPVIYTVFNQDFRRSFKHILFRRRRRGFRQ
Chain of sigma-1 receptor (Q99720 whole entry, species assumed): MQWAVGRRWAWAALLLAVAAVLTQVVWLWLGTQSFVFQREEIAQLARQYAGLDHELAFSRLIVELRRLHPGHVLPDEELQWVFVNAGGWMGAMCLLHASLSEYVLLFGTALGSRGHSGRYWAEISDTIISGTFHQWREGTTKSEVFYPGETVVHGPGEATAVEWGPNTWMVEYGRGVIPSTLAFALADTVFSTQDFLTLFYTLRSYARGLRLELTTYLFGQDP
Chain of α2b adrenergic receptor (P18089 whole entry): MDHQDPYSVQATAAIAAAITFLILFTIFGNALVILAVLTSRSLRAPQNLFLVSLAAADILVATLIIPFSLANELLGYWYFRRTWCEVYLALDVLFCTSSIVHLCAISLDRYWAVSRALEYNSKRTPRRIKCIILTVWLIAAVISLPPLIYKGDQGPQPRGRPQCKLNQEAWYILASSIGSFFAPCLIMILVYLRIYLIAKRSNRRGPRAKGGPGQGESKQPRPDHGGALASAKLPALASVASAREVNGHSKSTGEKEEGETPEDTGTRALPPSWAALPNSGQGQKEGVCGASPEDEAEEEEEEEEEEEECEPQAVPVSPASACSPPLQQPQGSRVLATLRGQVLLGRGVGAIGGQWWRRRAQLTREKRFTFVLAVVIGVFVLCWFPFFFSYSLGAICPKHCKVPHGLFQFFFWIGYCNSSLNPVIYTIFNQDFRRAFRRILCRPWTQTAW
Chain of serotonin transporter (SERT) (P31645 whole entry, species assumed): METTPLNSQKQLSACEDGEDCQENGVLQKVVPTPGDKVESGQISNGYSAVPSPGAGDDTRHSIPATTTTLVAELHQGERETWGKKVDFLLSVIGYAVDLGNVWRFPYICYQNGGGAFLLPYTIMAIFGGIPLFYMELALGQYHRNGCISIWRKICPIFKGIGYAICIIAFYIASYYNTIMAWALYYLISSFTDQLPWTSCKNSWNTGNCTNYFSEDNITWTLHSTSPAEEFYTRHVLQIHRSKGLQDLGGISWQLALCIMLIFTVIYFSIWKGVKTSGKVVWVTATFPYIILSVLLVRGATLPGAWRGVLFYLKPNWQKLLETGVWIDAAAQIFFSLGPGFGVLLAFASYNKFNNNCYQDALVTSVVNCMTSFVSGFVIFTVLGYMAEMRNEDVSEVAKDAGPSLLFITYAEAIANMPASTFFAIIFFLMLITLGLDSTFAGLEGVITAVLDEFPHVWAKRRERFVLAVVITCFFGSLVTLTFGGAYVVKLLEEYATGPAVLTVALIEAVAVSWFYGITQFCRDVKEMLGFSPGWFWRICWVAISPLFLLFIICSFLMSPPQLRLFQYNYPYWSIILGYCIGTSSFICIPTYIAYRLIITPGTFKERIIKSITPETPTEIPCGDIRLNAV
Chain of α2a adrenergic receptor (P08913 whole entry): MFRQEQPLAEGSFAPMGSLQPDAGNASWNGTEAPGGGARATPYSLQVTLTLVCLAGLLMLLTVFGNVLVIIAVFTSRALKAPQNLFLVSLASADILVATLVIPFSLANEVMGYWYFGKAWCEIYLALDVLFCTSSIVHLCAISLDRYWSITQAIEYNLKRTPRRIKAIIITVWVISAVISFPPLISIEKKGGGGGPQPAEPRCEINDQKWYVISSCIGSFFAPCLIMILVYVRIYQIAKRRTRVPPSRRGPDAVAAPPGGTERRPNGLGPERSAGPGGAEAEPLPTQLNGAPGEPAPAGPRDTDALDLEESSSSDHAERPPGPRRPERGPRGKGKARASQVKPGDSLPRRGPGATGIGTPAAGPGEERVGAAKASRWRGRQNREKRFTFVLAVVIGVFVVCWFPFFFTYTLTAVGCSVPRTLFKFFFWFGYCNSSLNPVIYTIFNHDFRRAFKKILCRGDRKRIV
Chain of D2 dopamine receptor (P14416 whole entry): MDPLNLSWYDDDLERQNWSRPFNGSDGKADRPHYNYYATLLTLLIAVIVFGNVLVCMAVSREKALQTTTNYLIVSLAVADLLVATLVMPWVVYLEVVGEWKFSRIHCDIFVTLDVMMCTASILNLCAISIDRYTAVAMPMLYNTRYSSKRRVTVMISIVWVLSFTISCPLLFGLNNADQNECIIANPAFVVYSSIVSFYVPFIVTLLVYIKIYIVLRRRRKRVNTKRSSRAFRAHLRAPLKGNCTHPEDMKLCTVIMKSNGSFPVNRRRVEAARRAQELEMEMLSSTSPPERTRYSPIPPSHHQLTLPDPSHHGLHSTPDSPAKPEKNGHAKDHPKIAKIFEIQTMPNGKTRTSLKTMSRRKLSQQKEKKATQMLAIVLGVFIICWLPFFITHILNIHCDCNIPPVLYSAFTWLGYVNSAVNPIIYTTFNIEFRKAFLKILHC
Chain of D1 dopamine receptor (P21728 whole entry): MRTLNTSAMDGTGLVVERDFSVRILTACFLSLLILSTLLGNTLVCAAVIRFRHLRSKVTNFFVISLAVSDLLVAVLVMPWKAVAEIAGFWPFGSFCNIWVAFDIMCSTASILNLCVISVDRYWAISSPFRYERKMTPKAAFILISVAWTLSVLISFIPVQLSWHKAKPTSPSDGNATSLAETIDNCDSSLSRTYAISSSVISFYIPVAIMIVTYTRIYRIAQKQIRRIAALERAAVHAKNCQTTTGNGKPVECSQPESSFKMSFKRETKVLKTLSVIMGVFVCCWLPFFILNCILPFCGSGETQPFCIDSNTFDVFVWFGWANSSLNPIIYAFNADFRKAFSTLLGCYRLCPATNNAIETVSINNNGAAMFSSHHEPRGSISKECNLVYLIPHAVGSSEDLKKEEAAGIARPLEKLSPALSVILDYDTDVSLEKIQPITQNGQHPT
Chain of dopamine transporter (DAT) (Q01959 whole entry, species assumed): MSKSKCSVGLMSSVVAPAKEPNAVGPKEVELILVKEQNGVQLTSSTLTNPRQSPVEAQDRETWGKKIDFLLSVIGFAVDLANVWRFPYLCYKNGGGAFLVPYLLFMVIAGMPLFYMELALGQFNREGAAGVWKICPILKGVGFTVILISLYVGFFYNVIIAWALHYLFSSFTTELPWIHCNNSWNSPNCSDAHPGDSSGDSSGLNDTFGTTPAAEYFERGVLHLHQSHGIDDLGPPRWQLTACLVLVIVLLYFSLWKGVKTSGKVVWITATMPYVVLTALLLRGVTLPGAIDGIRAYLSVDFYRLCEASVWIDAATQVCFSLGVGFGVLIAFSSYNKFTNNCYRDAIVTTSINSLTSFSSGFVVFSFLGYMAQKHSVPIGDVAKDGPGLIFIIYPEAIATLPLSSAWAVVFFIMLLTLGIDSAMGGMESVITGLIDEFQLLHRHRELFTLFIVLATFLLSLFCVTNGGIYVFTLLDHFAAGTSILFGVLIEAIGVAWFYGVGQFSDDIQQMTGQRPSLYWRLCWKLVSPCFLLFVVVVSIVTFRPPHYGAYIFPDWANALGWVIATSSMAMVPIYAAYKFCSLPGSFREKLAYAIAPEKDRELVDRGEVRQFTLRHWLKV

Q: For O=C(NCCCCN1CCN(c2ccccc2F)CC1)c1ccc(-c2ccsc2)cc1 [Compound 6a], which “DOI-dependent head twitch response” value (DBA/2J mice) is on record?
A: attenuated the number of head twitches

Q: What about the “L-dopa dependent AIM scores” value [1] of the same compound?
A: attenuate the AIM scores

Q: And the “binding affinity D1 (PDSP)” value (D1 dopamine receptor)?
A: low affinity binding

Q: What about the “binding affinity D2 (PDSP)” value (D2 dopamine receptor) of the same compound?
A: low affinity binding

Q: What about the Ki [2] of the same compound?
A: > 190 nM

Q: And the Ki [3]?
A: > 750 nM

Q: And the Ki (sigma-1 receptor)?
A: > 175 nM

Q: What about the Ki (α2a adrenergic receptor) of the same compound?
A: 15.2 nM

Q: And the Ki (α2b adrenergic receptor)?
A: > 100 nM

Q: What about the Ki (α2c adrenergic receptor) of the same compound?
A: 27.1 nM
